How the values were obtained:
Assay type in all cases: cell-based, mouse
[1] = system: Toll-like receptor 4 (TLR4); test: Surface expression of MØ antigens, cytometry: TLR4; conditions: 5 mM MBCD, 1 hr at 37°; 2nd antibody control 7.0
COX-2 = COX-2 expression and PGE2 release by MBCD- or saline-treated MØ
[2] = system: chitin phagosome-associated p38 and ERK1/2; test: Phagosomal (chitin particle-associated) MAPK phosphorylation; conditions: 10, 20 and 40 min
Description: FIG. 14 is a series of photographs of gels showing Phagosomal localization of MAPK proteins. MBCD- and saline-treated MØ were stimulated with 100 μg/ml 1-10 μm chitin particles at 37° C. for 10, 20 or 40 min. Chitin particle-associated proteins were isolated and extracted as described in Example 3. Particle-associated proteins derived from 2×10^6 MØ as well as whole cell proteins were separated on SDS-11% polyacrylamide gel and electroblotted to PVDF membrane. The data shown are representative of two independent experiments.
MBCD- or saline-treated MØ (2×10^6/ml) were stimulated with 100 μg/ml 1-10 μm chitin particles at 37° C. for 10, 20, or 40 min, washed with saline, suspended in homogenization buffer (50 mM Tris-HCl, pH 7.5, 0.32 M sucrose, 10 mM NaF, 1 mM Na3VO4, 5 mM EDTA, 1:500 protease inhibitor cocktail [Sigma]), and homogenized by sonication (20 s). […] Total and phosphorylated p38 and ERK1/2 as well as lysosome-associated membrane protein-1 (LAMP-1) were detected by western blotting with specific antibodies as described above. […]
The extent of phosphorylation of MAPK associated with intracellular chitin particles in MBCD-treated and saline-treated MØ was determined. […] MAPKs p38 and ERK1/2 and the respective phosphorylated forms were detected in the particle-associated fractions at 10, 20 and 40 min (FIG. 14). […] Phosphorylated JNK was not detected in the particle-associated fraction.

IL-10 mRNA = IL-10 mRNA expression in RAW264.7 MØ (RT-PCR)
mannose receptor (MR) = test: Surface expression of MØ antigens, cytometry: MR; conditions: 5 mM MBCD, 1 hr at 37°; 2nd antibody control 7.0
F4/80 = test: Surface expression of MØ antigens, cytometry: F4/80; conditions: 5 mM MBCD, 1 hr at 37°
Mac-1 = system: Mac-1
[3] = system: scavenger receptor A (SR-A); test: Surface expression of MØ antigens, cytometry: SR-A; conditions: 5 mM MBCD, 1 hr at 37°
RAW 264.7 MØ [4] = test: Cell-surface binding of FITC-chitin particles; conditions: MBCD-treated vs saline-treated MØ
Description: For chitin binding and phagocytosis assays, 1-10 μm chitin particles were labeled with fluorescein isothiocyanate (FITC). Particles (10 mg) and FITC (0.1 mg) were mixed and incubated in 0.1 M NaHCO3 at 22° C. for 2 h. Glycine (final 1 M) was added to bind free FITC, after which labeled particles were washed and suspended in saline at 10 mg/ml. To assess cell-surface binding of chitin, MØ were incubated with 100 μg/ml FITC-chitin particles on ice for 30 min. Free particles were removed by washing three times, and cellular fluorescence was measured cytometrically (BD FACSCalibur system with CELL Quest™ acquisition plus analysis program; Becton-Dickinson Immunocytometry Systems, San Jose, Calif.). To confirm that MØ binding to chitin particles was not altered by FITC, an excess of unlabeled particles (1,000 μg/ml) was used to compete with FITC-chitin.
It was also determined whether cholesterol depletion modifies MØ binding and internalization of FITC-chitin microparticles. […] Internalization of FITC-chitin particles at 37° C. was analyzed following quenching of unphagocytosed FITC-chitin. The magnitude of phagocytosis is similar for MBCD- and saline-treated MØ at 20 min: 12 and 12%, respectively.

[5] = system: Fcγ receptor II/III (FcγR); test: Surface expression of MØ antigens, cytometry: FcγR; conditions: 5 mM MBCD, 1 hr at 37°
Description: For evaluation of phagocytosis, MØ were incubated with 100 μg/ml FITC-chitin particles at 37° C. for 20 or 40 min. Fluorescence of unphagocytosed FITC-chitin was quenched with 50 mM acetate-buffered saline (pH 4.5) containing 2 mg/ml trypan blue, and the fluorescence intensity of MØ with intracellular FITC-chitin particles was measured cytometrically. The presence of intracellular FITC-chitin particles was further confirmed by fluorescence microscopy (Provis AX70 Microscope with MagnaFire, Olympus, Center Valley, Pa.). Expression of F4/80, Mac-1, FcγR, SR-A, TLR4, or MR on MØ was determined cytometrically.
The effect of cholesterol depletion on expression of the selected MØ surface antigens F4/80, Mac-1, FcγR, SR-A, TLR4, and MR was determined. […] The expression of TLR4 and MR were not altered by MBCD. The values for mean fluorescence intensity were consistent with the effects of MBCD on the expression of MØ antigens (Table 3). Therefore, MBCD at 5 mM or less was used for further experiments. All studies of chitin stimulation in the presence of MBCD were terminated within 6 h.

RAW 264.7 MØ [6] = test: TNF-α production by MBCD- or saline-treated MØ (ELISA); conditions: for increase in TNF-α production in response to chitin particles: 1 mM MBCD

Mac-1, sequence (P05555 17-1153): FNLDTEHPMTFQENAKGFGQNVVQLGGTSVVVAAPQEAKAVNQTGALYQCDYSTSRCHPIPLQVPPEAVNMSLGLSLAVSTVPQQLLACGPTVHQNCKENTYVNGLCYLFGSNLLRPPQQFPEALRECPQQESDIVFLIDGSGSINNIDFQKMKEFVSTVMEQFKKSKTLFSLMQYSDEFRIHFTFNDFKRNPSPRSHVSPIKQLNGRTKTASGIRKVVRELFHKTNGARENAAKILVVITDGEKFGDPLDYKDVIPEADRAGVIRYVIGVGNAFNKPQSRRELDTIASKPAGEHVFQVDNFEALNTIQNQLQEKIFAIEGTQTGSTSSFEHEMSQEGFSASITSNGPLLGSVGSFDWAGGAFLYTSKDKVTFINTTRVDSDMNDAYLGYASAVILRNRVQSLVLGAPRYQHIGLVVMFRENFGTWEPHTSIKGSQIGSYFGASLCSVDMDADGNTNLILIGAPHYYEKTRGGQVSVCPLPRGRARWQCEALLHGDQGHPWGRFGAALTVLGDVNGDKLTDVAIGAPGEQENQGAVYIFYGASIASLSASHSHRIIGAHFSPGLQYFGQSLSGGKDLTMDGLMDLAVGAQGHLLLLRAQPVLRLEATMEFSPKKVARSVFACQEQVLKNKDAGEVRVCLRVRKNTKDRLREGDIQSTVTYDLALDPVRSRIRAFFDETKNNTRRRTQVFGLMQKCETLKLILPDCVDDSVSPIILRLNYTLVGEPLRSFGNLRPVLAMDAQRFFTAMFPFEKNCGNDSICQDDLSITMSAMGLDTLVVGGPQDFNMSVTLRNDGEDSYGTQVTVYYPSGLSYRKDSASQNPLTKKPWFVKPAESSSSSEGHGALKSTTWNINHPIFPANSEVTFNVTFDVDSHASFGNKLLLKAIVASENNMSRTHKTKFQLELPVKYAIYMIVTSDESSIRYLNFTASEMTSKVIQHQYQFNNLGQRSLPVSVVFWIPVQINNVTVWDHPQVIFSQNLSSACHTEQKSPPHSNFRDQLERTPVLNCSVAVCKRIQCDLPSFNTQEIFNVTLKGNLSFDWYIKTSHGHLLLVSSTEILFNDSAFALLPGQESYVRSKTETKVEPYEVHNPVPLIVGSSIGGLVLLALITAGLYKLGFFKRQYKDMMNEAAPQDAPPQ

## methyl-β-cyclodextrin [MBCD]
[1]
  MFI, TLR4: 23
COX-2; 1 mM MBCD
  CpG-ODN-induced COX-2 expression or PGE2 release: did not enhance
COX-2; 5 mM MBCD
  COX-2 expression, MBCD alone: induced
  PGE2 release vs MØ treated with saline: not different
[2]
  relative amounts of chitin-associated phosphorylated MAPK, MBCD- vs saline-treated cells (FIG. 14): greater
IL-10 mRNA
  CpG-ODN-induced IL-10 mRNA after MBCD treatment: not increased
IL-10 mRNA; 6 h
  chitin particle-induced IL-10 mRNA expression after MBCD treatment: did not result in IL-10 mRNA expression
Mannose receptor (MR)
  MFI, MR: 73
F4/80
  % positive cells in M1, F4/80: 69%
F4/80; 2nd antibody control 7.0
  MFI, F4/80: 17
Mac-1
  % positive cells in M1, Mac-1: 81%
  MFI, Mac-1: 36
[3]
  % positive cells in M1, SR-A: 81%
[3]; 2nd antibody control 7.0
  MFI, SR-A: 32
RAW 264.7 MØ [4]
  effect of MBCD treatment on MØ binding to FITC-chitin particles: not significantly altered
[5]
  % positive cells in M1, FcγR: 65%
[5]; 2nd antibody control 7.0
  MFI, FcγR: 14
RAW 264.7 MØ [6]; 20 μg/ml chitin particles
  increase in TNF-α production in response to chitin particles: 3 fold
RAW 264.7 MØ [6]; 100 μg/ml chitin particles
  increase in TNF-α production in response to chitin particles: 1.8 fold
RAW 264.7 MØ [6]; 5 mM MBCD
  TNF-α production, MBCD alone: enhanced slightly but significantly

— patent publication US20090324624A1, “Chitin micro-particles as an adjuvant” (priority 2006, published 2009)
